From the NIST ThermoML archive (doi:10.1021/je020205i)

Experiment: xn = mol fraction of the nth substance listed
Conditions: Fluid (supercritical or subcritical phases), Taylor dispersion method, x1 = 0

CCCCC/C=C\C/C=C\CCCCCCCC(=O)O [(Z,Z)-9,12-octadecadienoic acid] + O=C=O
Conditions | binary diffusion coefficient [m2/s]
308.15 K, 8500 kPa | 8.7e-09
308.15 K, 8970 kPa | 8.31e-09
308.15 K, 10000 kPa | 7.53e-09
308.15 K, 11020 kPa | 7.33e-09
308.15 K, 12000 kPa | 6.89e-09
308.15 K, 14000 kPa | 6.45e-09
308.15 K, 16010 kPa | 6.13e-09
308.15 K, 17470 kPa | 6.02e-09
308.15 K, 18020 kPa | 5.9e-09
308.15 K, 20000 kPa | 5.85e-09
308.15 K, 21000 kPa | 5.71e-09
308.15 K, 22030 kPa | 5.69e-09
308.15 K, 25000 kPa | 5.26e-09
308.15 K, 26000 kPa | 5.2e-09
308.15 K, 28050 kPa | 5.05e-09
308.15 K, 30300 kPa | 4.96e-09
313.21 K, 9490 kPa | 9.47e-09
313.21 K, 10040 kPa | 8.74e-09
313.21 K, 10990 kPa | 8.03e-09
313.21 K, 12000 kPa | 7.7e-09
313.21 K, 14020 kPa | 7.17e-09
313.21 K, 15980 kPa | 6.75e-09
313.21 K, 17980 kPa | 6.47e-09
313.21 K, 20000 kPa | 6.13e-09
313.21 K, 21990 kPa | 5.97e-09
313.21 K, 24000 kPa | 5.77e-09
313.21 K, 26010 kPa | 5.63e-09
313.21 K, 27990 kPa | 5.46e-09
313.21 K, 30040 kPa | 5.49e-09
313.21 K, 30110 kPa | 5.39e-09
323.15 K, 12020 kPa | 8.9e-09
323.15 K, 12510 kPa | 9.15e-09
323.15 K, 13000 kPa | 8.86e-09
323.15 K, 14000 kPa | 8.58e-09
323.15 K, 16000 kPa | 7.76e-09
323.15 K, 18000 kPa | 7.39e-09
323.15 K, 20010 kPa | 7.06e-09
323.15 K, 22000 kPa | 6.83e-09
323.15 K, 24000 kPa | 6.57e-09
323.15 K, 26000 kPa | 6.37e-09
323.15 K, 28020 kPa | 6.12e-09
323.15 K, 30290 kPa | 5.9e-09
333.15 K, 13890 kPa | 9.59e-09
333.15 K, 14480 kPa | 9.99e-09
333.15 K, 15000 kPa | 9.67e-09
333.15 K, 15980 kPa | 9.33e-09
333.15 K, 18000 kPa | 8.66e-09
333.15 K, 20000 kPa | 8.28e-09
333.15 K, 20050 kPa | 8.17e-09
333.15 K, 22000 kPa | 7.82e-09
333.15 K, 24020 kPa | 7.58e-09
333.15 K, 26060 kPa | 7.21e-09
333.15 K, 27020 kPa | 7.14e-09
333.15 K, 28020 kPa | 7.03e-09
333.15 K, 29040 kPa | 6.99e-09
333.15 K, 30070 kPa | 6.82e-09
343.15 K, 16200 kPa | 1.02e-08
343.15 K, 16210 kPa | 1.04e-08
343.15 K, 16990 kPa | 1.02e-08
343.15 K, 17990 kPa | 9.85e-09
343.15 K, 18000 kPa | 9.84e-09
343.15 K, 18990 kPa | 9.43e-09
343.15 K, 20000 kPa | 9.01e-09
343.15 K, 20040 kPa | 9.18e-09
343.15 K, 22000 kPa | 8.71e-09
343.15 K, 24000 kPa | 8.37e-09
343.15 K, 26010 kPa | 8.11e-09
343.15 K, 26990 kPa | 7.88e-09
343.15 K, 28010 kPa | 7.77e-09
343.15 K, 29050 kPa | 7.81e-09
343.15 K, 30030 kPa | 7.64e-09

CCCCCC=CCC=CCC=CCC=CCCCC(=O)O [5,8,11,14-eicosatetraenoic acid] + O=C=O
Conditions | binary diffusion coefficient [m2/s]
308.15 K, 9500 kPa | 7.5e-09
308.15 K, 10000 kPa | 7.17e-09
308.15 K, 10520 kPa | 7.03e-09
308.15 K, 10870 kPa | 6.75e-09
308.15 K, 11000 kPa | 6.58e-09
308.15 K, 11500 kPa | 6.57e-09
308.15 K, 12010 kPa | 6.7e-09
308.15 K, 12020 kPa | 6.48e-09
308.15 K, 12490 kPa | 6.27e-09
308.15 K, 12990 kPa | 6.18e-09
308.15 K, 14000 kPa | 6.17e-09
308.15 K, 15990 kPa | 5.9e-09
308.15 K, 17990 kPa | 5.63e-09
308.15 K, 20010 kPa | 5.48e-09
308.15 K, 22000 kPa | 5.38e-09
308.15 K, 24000 kPa | 5.25e-09
308.15 K, 26000 kPa | 5.11e-09
308.15 K, 28010 kPa | 5.02e-09
308.15 K, 30240 kPa | 4.99e-09
308.15 K, 30490 kPa | 4.85e-09
313.21 K, 9500 kPa | 9.04e-09
313.21 K, 10000 kPa | 8.41e-09
313.21 K, 11010 kPa | 7.76e-09
313.21 K, 12010 kPa | 7.1e-09
313.21 K, 14000 kPa | 6.66e-09
313.21 K, 16000 kPa | 6.29e-09
313.21 K, 18000 kPa | 6.06e-09
313.21 K, 20000 kPa | 5.78e-09
313.21 K, 22010 kPa | 5.64e-09
313.21 K, 24010 kPa | 5.53e-09
313.21 K, 26010 kPa | 5.36e-09
313.21 K, 28020 kPa | 5.24e-09
313.21 K, 30040 kPa | 5.1e-09
313.21 K, 30130 kPa | 5.1e-09
323.15 K, 12010 kPa | 9.02e-09
323.15 K, 12500 kPa | 9.07e-09
323.15 K, 13020 kPa | 8.66e-09
323.15 K, 13480 kPa | 8.28e-09
323.15 K, 14010 kPa | 8.15e-09
323.15 K, 15990 kPa | 7.44e-09
323.15 K, 18000 kPa | 7.03e-09
323.15 K, 20020 kPa | 6.78e-09
323.15 K, 21990 kPa | 6.42e-09
323.15 K, 24000 kPa | 6.21e-09
323.15 K, 26000 kPa | 6.02e-09
323.15 K, 28020 kPa | 5.88e-09
323.15 K, 30050 kPa | 5.64e-09
323.15 K, 30060 kPa | 5.82e-09
333.15 K, 13890 kPa | 1.05e-08
333.15 K, 15030 kPa | 9.16e-09
333.15 K, 15500 kPa | 9.04e-09
333.15 K, 16980 kPa | 8.47e-09
333.15 K, 17500 kPa | 8.32e-09
333.15 K, 19010 kPa | 7.91e-09
333.15 K, 19990 kPa | 7.67e-09
333.15 K, 22010 kPa | 7.26e-09
333.15 K, 24000 kPa | 7.01e-09
333.15 K, 26010 kPa | 6.81e-09
333.15 K, 26060 kPa | 6.78e-09
333.15 K, 28030 kPa | 6.68e-09
333.15 K, 30160 kPa | 6.49e-09
343.15 K, 16200 kPa | 1.01e-08
343.15 K, 16990 kPa | 9.57e-09
343.15 K, 17490 kPa | 9.45e-09
343.15 K, 18010 kPa | 9.14e-09
343.15 K, 18990 kPa | 8.93e-09
343.15 K, 19990 kPa | 8.61e-09
343.15 K, 21000 kPa | 8.46e-09
343.15 K, 22010 kPa | 8.32e-09
343.15 K, 22980 kPa | 7.87e-09
343.15 K, 23990 kPa | 7.79e-09
343.15 K, 26000 kPa | 7.58e-09
343.15 K, 28000 kPa | 7.12e-09
343.15 K, 28050 kPa | 7.3e-09
343.15 K, 30260 kPa | 7.13e-09
